Data as given in patent US10407409B2, “6-(5-hydroxy-1H-pyrazol-1-yl)nicotinamide inhibitors of PHD” (Takeda Pharmaceutical Company Limited, priority 2013, dated 2019).

How the values were obtained:
[1] = molecular target: PHD2 enzyme (residues 181-417) (Homo sapiens (Human), UniProt Q9GZT9); experiment: Inhibition of PHD enzyme (LC/MS peptide hydroxylation assay); type: biochemical; conditions: PHD2 (residues 181-417) 5 nM, 60 min pre-incubation; -log(IC50), IC50 molar
In short: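 Hydroxylated peptide quantified by LC/MS after 60 min turnover of 1 uM biotinylated peptide with 2 uM 2-oxoglutarate and 1 mM ascorbate, stopped by excess tight-binding inhibitor. Beforehand, 5 nM enzyme and compound were preincubated 60 min at RT, pH 7.3 HEPES/KCl/TCEP/FeCl2/BSA buffer. Values as pIC50 (−log molar IC50).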

[2] = test system: HIF1a protein in H9c2 rat cardiomyocytes; experiment: Cell-based HIF-alpha stabilization assay (inhibition of PHD in cells); conditions: Rattus norvegicus, H9c2, 24 h, 24 hrs compound incubation, HIF1a protein by ELISA, read-out: Inhibition of PHD in cells (pEC50) (converted)
In short: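 HIF1a stabilization was measured by ELISA on lysates of H9c2 rat cardiomyocytes after 24 h exposure to 11 serial compound concentrations, expressed relative to the desferrioxamine maximum. Curve fits gave EC50. EC50pos denotes the concentration producing half the desferrioxamine maximal response.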

Sequence of PHD2 enzyme (residues 181-417) (Q9GZT9 181-417): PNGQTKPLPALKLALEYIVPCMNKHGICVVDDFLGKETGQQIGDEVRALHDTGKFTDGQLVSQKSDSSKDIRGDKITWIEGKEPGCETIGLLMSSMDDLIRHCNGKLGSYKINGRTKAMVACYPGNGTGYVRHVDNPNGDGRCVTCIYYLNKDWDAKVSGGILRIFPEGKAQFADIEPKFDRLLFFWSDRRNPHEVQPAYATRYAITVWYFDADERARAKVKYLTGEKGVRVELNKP

SMILES: COCC1CCN(C(=O)c2ccc(-n3ncc(-c4ccc(C#N)cc4C)c3O)nc2)CC1 [Example 248, 4-(5-hydroxy-1-(5-(4-(methoxymethyl)piperidine-1-carbonyl)pyridin-2-yl)-1H-pyrazol-4-yl)-3-methylbenzonitrile]
- PHD Inhibition (pIC50) [1]: 8.3
- EC50 [2]: 0.251 µM

SMILES: COC1CCN(C(=O)c2ccc(-n3ncc(-c4ccc(C#N)cc4C)c3O)nc2)CC1 [Example 249, 4-(5-hydroxy-1-(5-(4-methoxypiperidine-1-carbonyl)pyridin-2-yl)-1H-pyrazol-4-yl)-3-methylbenzonitrile]
- PHD Inhibition (pIC50) [1]: 8.3
- EC50 [2]: 0.275 µM

SMILES: Cc1cc(C#N)ccc1-c1cnn(-c2ccc(C(=O)NCCOC(F)(F)F)cn2)c1O [Example 250, 6-(4-(4-cyano-2-methylphenyl)-5-hydroxy-1H-pyrazol-1-yl)-N-(2-(trifluoromethoxy)ethyl)nicotinamide]
- PHD Inhibition (pIC50) [1]: 8
- EC50 [2]: 0.457 µM

SMILES: COCCCN(C)C(=O)c1ccc(-n2ncc(-c3ccc(C#N)cc3C)c2O)nc1 [Example 251, 6-(4-(4-cyano-2-methylphenyl)-5-hydroxy-1H-pyrazol-1-yl)-N-(3-methoxypropyl)-N-methylnicotinamide]
- PHD Inhibition (pIC50) [1]: 8.2
- EC50 [2]: 0.324 µM

SMILES: COCC1CCN(C(=O)c2ccc(-n3ncc(-c4ccc(C#N)cc4C)c3O)nc2)C1 (centres unmarked) [Example 252, 4-(5-hydroxy-1-(5-(3-(methoxymethyl)pyrrolidine-1-carbonyl)pyridin-2-yl)-1H-pyrazol-4-yl)-3-methylbenzonitrile]
- PHD Inhibition (pIC50) [1]: 8.3
- EC50 [2]: 0.263 µM

SMILES: COc1cc(-c2cnn(-c3ccc(C(=O)NCC4CCOCC4)cn3)c2O)ccc1C#N [Example 253, 6-(4-(4-cyano-3-methoxyphenyl)-5-hydroxy-1H-pyrazol-1-yl)-N-((tetrahydro-2H-pyran-4-yl)methyl)nicotinamide]
- PHD Inhibition (pIC50) [1]: 8.3
- EC50 [2]: 5.62 µM

SMILES: COc1cc(-c2cnn(-c3ccc(C(=O)NCC4CCOCC4)cn3)c2O)c(F)cn1 [Example 254, 6-(4-(5-fluoro-2-methoxypyridin-4-yl)-5-hydroxy-1H-pyrazol-1-yl)-N-((tetrahydro-2H-pyran-4-yl)methyl)nicotinamide]
- PHD Inhibition (pIC50) [1]: 8
- EC50 [2]: 2.75 µM

SMILES: COc1nccc(-c2cnn(-c3ccc(C(=O)NCC4CCOCC4)cn3)c2O)c1OC [Example 255, 6-(4-(2,3-dimethoxypyridin-4-yl)-5-hydroxy-1H-pyrazol-1-yl)-N-((tetrahydro-2H-pyran-4-yl)methyl)nicotinamide]
- PHD Inhibition (pIC50) [1]: 7.6
- EC50 [2]: 1.45 µM

SMILES: N#Cc1ccc(-c2cnn(-c3ccc(C(=O)N[C@H]4CC[C@@H](O)C4)cn3)c2O)cc1 [Example 258, 6-(4-(4-cyanophenyl)-5-hydroxy-1H-pyrazol-1-yl)-N-((1s,3r)-3-hydroxycyclopentyl)nicotinamide]
- PHD Inhibition (pIC50) [1]: 7.44
- EC50 [2]: 0.813 µM

SMILES: N#Cc1ccc(-c2cnn(-c3ccc(C(=O)N[C@H]4CC[C@H](O)C4)cn3)c2O)cc1 [Example 259, 6-(4-(4-cyanophenyl)-5-hydroxy-1H-pyrazol-1-yl)-N-((1s,3s)-3-hydroxycyclopentyl)nicotinamide]
- PHD Inhibition (pIC50) [1]: 7.39
- EC50 [2]: 1 µM

SMILES: CC1(CNC(=O)c2ccc(-n3ncc(-c4ccc(C#N)cc4)c3O)nc2)COC1 [Example 261, 6-(4-(4-cyanophenyl)-5-hydroxy-1H-pyrazol-1-yl)-N-((3-methyloxetan-3-yl)methyl)nicotinamide]
- PHD Inhibition (pIC50) [1]: 7.39
- EC50 [2]: 1.12 µM

SMILES: CC1CC1NC(=O)c1ccc(-n2ncc(-c3ccc(C#N)cc3)c2O)nc1 (centres unmarked) [Example 262, 6-(4-(4-cyanophenyl)-5-hydroxy-1H-pyrazol-1-yl)-N-(2-methylcyclopropyl)nicotinamide]
- PHD Inhibition (pIC50) [1]: 7.38
- EC50 [2]: 0.525 µM

SMILES: N#Cc1ccc(-c2cnn(-c3ccc(C(=O)NCC4(F)CCCCC4)cn3)c2O)cc1 [Example 263, 6-(4-(4-cyanophenyl)-5-hydroxy-1H-pyrazol-1-yl)-N-((1-fluorocyclohexyl)methyl)nicotinamide]
- PHD Inhibition (pIC50) [1]: 7.22
- EC50 [2]: 1.23 µM
